{
  "source": "ChEMBL document CHEMBL3045030",
  "about": "“Insect antifeedants from tropical plants II: structure of zumsin” (2002)",
  "type_in_all_cases": "functional",
  "key": {"Pectinophora gossypiella [1]": {"test_system": "Pectinophora gossypiella", "assay": "Antifeedant activity against second-instar larvae of Pectinophora gossypiella (pink bollworm) in cotton glandless leaves assessed as 50% protection of host plant substrate after 48 hr"}, "Pectinophora gossypiella [2]": {"test_system": "Pectinophora gossypiella", "assay": "Antifeedant activity against second-instar larvae of Pectinophora gossypiella (pink bollworm) in cotton glandless leaves assessed as 95% protection of host plant substrate after 48 hr"}, "Spodoptera frugiperda [3]": {"test_system": "Spodoptera frugiperda", "assay": "Antifeedant activity against second-instar larvae of Spodoptera frugiperda (fall armyworm) in cotton glandless leaves assessed as 95% protection of host plant substrate after 48 hr"}, "Spodoptera frugiperda [4]": {"test_system": "Spodoptera frugiperda", "assay": "Antifeedant activity against second-instar larvae of Spodoptera frugiperda (fall armyworm) in cotton glandless leaves assessed as 50% protection of host plant substrate after 48 hr"}},
  "data": [
    {"smiles": "CC(=O)O[C@@H]1[C@@H]2[C@@]34CC(=O)C[C@@H]3OC(C)(C)[C@@H]4CC(=O)[C@@]2(C)[C@@]23O[C@@H]2C[C@H](c2ccoc2)[C@]3(C)[C@H]1OC(C)=O", "note": "[ZUMSIN]", "values": [
      {"measurement": "PC50", "setting": "Pectinophora gossypiella [1]", "result": 1, "unit": "microg/cm2"},
      {"measurement": "PC95", "setting": "Pectinophora gossypiella [2]", "result": 8, "unit": "microg/cm2"},
      {"measurement": "PC95", "setting": "Spodoptera frugiperda [3]", "result": 16, "unit": "microg/cm2"},
      {"measurement": "PC50", "setting": "Spodoptera frugiperda [4]", "result": 2, "unit": "microg/cm2"}
    ]}
  ]
}
